Measurements from US20210070748A1, “INHIBITORS OF BRUTONS TYROSINE KINASE” (Pharmacyclics LLC, priority 2015, published 2021).

Assays:
Assay type in all cases: biochemical
Settings in all cases: Table 15, C compounds; 1 μM ATP
TXK = target: T1, TXK (Homo sapiens, UniProt P42681); experiment: Inhibition of a panel of kinases, in vitro HotSpot kinase assay: TXK
T1 sequence (P42681 1-527): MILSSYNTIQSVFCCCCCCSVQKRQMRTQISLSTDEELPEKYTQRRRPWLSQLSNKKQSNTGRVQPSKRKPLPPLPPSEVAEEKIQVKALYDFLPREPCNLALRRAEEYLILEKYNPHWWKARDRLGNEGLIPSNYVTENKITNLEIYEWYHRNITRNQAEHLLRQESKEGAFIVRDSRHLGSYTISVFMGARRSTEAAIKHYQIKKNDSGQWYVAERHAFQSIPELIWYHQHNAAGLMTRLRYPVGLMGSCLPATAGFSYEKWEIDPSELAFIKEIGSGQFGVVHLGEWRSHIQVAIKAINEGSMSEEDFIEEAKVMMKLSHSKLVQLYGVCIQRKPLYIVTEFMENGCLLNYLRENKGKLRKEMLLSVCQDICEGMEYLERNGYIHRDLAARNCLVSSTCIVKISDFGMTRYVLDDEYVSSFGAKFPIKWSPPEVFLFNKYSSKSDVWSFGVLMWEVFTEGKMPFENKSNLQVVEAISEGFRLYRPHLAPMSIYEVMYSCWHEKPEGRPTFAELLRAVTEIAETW
Method: (§1) The degree of inhibition of a panel of kinases is determined using the in vitro HotSpot kinase assay (purified enzymes, ^33P-ATP, an appropriate substrate and 1 μM ATP).

EGFR = EGFR (Homo sapiens, UniProt P00533); experiment: Inhibition of a panel of kinases, in vitro HotSpot kinase assay: EGFR
Method: as §1

TEC = target: T2, TEC (Homo sapiens, UniProt P42680); experiment: Inhibition of a panel of kinases, in vitro HotSpot kinase assay: TEC
T2 sequence (P42680 1-631): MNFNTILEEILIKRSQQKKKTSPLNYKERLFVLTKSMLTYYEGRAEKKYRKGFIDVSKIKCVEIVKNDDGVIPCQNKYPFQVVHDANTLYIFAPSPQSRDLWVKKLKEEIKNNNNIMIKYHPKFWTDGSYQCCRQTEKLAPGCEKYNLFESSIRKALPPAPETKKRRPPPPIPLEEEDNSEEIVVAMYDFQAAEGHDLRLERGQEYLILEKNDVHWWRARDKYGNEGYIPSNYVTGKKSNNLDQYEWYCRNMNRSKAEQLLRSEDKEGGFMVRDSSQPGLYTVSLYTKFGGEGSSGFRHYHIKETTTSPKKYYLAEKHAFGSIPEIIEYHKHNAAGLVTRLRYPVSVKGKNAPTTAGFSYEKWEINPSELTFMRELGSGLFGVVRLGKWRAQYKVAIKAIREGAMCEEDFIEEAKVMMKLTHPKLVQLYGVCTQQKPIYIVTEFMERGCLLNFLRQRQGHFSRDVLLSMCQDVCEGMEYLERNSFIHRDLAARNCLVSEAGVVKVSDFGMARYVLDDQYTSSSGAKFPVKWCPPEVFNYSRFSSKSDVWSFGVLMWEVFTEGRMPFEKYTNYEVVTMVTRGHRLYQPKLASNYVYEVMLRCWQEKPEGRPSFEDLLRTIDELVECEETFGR
Method: as §1

ITK = target: T3, ITK (Homo sapiens, UniProt Q08881); experiment: Inhibition of a panel of kinases, in vitro HotSpot kinase assay: ITK
T3 sequence (Q08881 1-620): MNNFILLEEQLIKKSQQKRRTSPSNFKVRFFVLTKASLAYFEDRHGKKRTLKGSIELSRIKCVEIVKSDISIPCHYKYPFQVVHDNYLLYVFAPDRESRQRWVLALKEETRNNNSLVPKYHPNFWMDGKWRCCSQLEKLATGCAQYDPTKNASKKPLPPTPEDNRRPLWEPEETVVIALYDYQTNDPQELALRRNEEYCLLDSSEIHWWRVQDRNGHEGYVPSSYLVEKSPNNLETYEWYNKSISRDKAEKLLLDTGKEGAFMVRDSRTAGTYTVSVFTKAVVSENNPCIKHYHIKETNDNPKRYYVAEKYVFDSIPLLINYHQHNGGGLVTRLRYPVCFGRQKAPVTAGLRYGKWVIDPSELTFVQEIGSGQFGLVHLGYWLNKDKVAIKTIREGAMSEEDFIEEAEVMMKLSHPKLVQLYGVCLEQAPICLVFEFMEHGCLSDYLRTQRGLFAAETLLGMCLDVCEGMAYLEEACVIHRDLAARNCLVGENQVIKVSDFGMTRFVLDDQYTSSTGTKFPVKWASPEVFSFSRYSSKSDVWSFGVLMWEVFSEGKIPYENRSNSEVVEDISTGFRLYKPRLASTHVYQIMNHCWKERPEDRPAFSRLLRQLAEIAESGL
Method: as §1

Chain of EGFR (P00533 25-1210): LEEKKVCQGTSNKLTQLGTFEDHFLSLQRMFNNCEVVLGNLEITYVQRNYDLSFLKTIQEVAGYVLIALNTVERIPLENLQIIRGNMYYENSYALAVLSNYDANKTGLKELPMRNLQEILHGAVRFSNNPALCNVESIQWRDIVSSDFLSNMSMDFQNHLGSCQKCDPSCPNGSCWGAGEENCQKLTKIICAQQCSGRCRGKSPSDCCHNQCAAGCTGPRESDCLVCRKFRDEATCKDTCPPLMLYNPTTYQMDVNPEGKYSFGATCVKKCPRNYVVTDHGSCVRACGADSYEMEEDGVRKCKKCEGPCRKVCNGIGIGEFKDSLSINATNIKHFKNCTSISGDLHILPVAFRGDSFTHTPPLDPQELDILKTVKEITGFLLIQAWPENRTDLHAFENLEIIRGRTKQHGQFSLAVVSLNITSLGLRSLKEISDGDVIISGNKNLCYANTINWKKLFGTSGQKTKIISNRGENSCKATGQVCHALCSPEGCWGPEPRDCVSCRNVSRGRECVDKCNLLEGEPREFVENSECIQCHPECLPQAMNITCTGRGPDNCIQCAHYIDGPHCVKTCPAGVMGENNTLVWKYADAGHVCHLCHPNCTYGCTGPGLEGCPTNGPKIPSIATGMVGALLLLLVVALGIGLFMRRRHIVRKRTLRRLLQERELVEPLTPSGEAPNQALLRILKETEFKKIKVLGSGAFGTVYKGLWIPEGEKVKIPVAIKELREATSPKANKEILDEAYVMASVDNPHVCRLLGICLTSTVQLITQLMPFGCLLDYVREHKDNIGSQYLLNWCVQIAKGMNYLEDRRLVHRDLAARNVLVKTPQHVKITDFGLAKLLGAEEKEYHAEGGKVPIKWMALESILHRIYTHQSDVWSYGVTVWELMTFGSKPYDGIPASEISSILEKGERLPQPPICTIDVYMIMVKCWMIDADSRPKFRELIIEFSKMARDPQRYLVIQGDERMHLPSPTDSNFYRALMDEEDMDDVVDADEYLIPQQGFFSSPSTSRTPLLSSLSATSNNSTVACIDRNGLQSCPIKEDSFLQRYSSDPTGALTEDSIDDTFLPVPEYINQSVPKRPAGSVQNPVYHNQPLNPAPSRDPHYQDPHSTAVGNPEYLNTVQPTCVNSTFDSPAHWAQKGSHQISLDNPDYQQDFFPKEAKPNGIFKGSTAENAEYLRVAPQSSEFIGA

C=CC(=O)N1CCC[C@@H](Nc2nnc(C(N)=O)c(Nc3cc(C)ns3)n2)C1 [Example C-56, (R)-3-(1-acryloylpiperidin-3-ylamino)-5-(3-methylisothiazol-5-ylamino)-1,2,4-triazine-6-carboxamide] gave an IC50 (TXK) of at most 10 nM, an IC50 (EGFR) of at most 10 nM and an IC50 (TEC) of at most 10 nM. For the same compound, the IC50 (ITK) was at most 10 nM.

In the case of C=CC(=O)N1CCC[C@@H](Nc2nnc(C(N)=O)c(Nc3ccc(C4CCN(C(=O)CC)CC4)cc3)n2)C1 [Example C-57, (R)-3-(1-acryloylpiperidin-3-ylamino)-5-(4-(1-propionylpiperidin-4-yl)phenylamino)-1,2,4-triazine-6-carboxamide], the IC50 (TXK) is reported as at most 10 nM, the IC50 (EGFR) is reported as at most 10 nM and the IC50 (TEC) is reported as at most 10 nM. The IC50 (ITK) was at most 10 nM.

In the case of C=CC(=O)N1CCC[C@@H](Nc2cnc(C(N)=O)c(Nc3ccc(C4CCN(C5CCCC5)CC4)cc3)n2)C1 [Example C-84, (R)-5-(1-acryloylpiperidin-3-ylamino)-3-(4-(1-cyclopentylpiperidin-4-yl)phenylamino)pyrazine-2-carboxamide], the IC50 (TXK) is reported as at most 10 nM, the IC50 (EGFR) is reported as at most 10 nM and the IC50 (TEC) is reported as at most 10 nM. The IC50 (ITK) was at most 10 nM.

In the case of C=CC(=O)N1CC[C@@H](N(C)c2cnc(C(N)=O)c(Nc3ccc(C4CCN(C5CCCC5)CC4)cc3)n2)C1 [Example C-85, (R)-5-((1-acryloylpyrrolidin-3-yl)(methyl)amino)-3-(4-(1-cyclopentylpiperidin-4-yl)phenylamino) pyrazine-2-carboxamide], the IC50 (TXK) is reported as at most 10 nM, the IC50 (EGFR) is reported as 10 to 100 nM and the IC50 (TEC) is reported as at most 10 nM. For the same compound, the IC50 (ITK) was at most 10 nM.
